From article PMC12511262 (European Journal of Clinical Pharmacology, 2025)
Read-outs that look alike come from different tables or passages of the source.

What was measured:
[1] = Population pharmacokinetic model of quizartinib (NONMEM v7.5) applied to the external evaluation dataset; assay type: in vivo, human; conditions: popPK estimates
Description: Parameter values and covariate relationships were fixed according to those reported in the original publication, without any re-estimation or modification. Key model parameters were described at Table 2: Predictions were generated using recorded doses, sampling times, and covariate values from the evaluation dataset.

[2] = single oral dose of 60 mg [14C]-quizartinib, six healthy men; cited from earlier work
[3] = FLT3-ITD negative AML patients, steady state

## CC(C)(C)c1cc(NC(=O)Nc2ccc(-c3cn4c(n3)sc3cc(OCCN5CCOCC5)ccc34)cc2)no1 [quizartinib]
[1]; human, plasma, oral, FLT3-ITD negative AML patients, steady state, read-out: F1 Bioavailability, Mean
  bioavailability: 77%
[1]; human, plasma, oral, FLT3-ITD negative AML patients, steady state, read-out: F1 Bioavailability, Median
  bioavailability: 75%
[1]; human, plasma, oral, FLT3-ITD negative AML patients, steady state, read-out: V2 Volume of distribution (central compartment), Mean
  Vd: 219 L
[1]; human, plasma, oral, FLT3-ITD negative AML patients, steady state, read-out: V2 Volume of distribution (central compartment), Median
  Vd: 227 L
[1]; human, plasma, oral, FLT3-ITD negative AML patients, steady state, read-out: t1/2 Half-life, Mean (converted)
  half-life: 82.4 h
[1]; human, plasma, oral, FLT3-ITD negative AML patients, steady state, read-out: t1/2 Half-life, Median (converted)
  half-life: 82.5 h
[1]; human, plasma, oral, median, read-out: bioavailability factor (F1), median
  bioavailability: 75%
[1]; human, plasma, oral, median, read-out: median clearance (CL) (converted)
  clearance: 29.3 mL/min
[1]; [3]
  CL Clearance, Median: 1.76
  KA Absorption rate constant, Mean: 1.68
  KA Absorption rate constant, Median: 1.68
  KE Elimination rate constant, Mean: 0.01
  KE Elimination rate constant, Median: 0.01
[1]; FLT3-ITD negative AML patients, steady state, oral quizartinib 30 mg daily with food (one patient 60 mg)
  CL Clearance, Mean: 1.97
[1]; median
  V3 (peripheral compartment), median: 176.03 L
  V4, median: 39.30 L
[2]
  time of maximum blood concentration post-dosing: four
